Assay [1] concerns the target T1, TREK-1 (Mus musculus, UniProt P97438).
T1 sequence (P97438 1-426): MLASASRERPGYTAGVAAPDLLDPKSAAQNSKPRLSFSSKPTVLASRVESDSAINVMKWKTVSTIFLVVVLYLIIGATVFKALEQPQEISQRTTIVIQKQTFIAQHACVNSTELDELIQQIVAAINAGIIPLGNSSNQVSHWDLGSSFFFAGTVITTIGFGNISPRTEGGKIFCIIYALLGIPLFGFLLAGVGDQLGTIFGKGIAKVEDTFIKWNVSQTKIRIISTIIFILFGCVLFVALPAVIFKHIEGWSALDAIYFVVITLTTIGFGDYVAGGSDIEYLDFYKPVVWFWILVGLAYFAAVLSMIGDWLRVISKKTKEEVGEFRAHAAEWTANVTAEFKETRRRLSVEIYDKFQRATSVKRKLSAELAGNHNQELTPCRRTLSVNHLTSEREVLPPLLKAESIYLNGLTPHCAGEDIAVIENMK
Briefly: Whole-cell patch-clamp on CA3 pyramidal neurons in hippocampus brain slices. In kind it is cell-based. Set-up: a cellular network that endogenously expresses both TREK-1 and NTSR3/Sortilin; from tissue; host or cells: mouse hippocampal brain slices, CA3 pyramidal neurons. Conditions: wild-type CA3 neurons, K+ blockers, 10 μM aa, n=12.

Assay [2] addresses T1, TREK-1. As to the kind of experiment: Whole-cell patch-clamp on cultured pyramidal neurons from hippocampus. Format: cell-based. Also noted: endogenous in cells; host or cells: primary hippocampal pyramidal neurons from newborn mice. To be noted: 10 μM, K+ blockers, at -50 mV, 7 out of 70 neurons. The procedure: A, Cultured pyramidal neuron from hippocampus, with on top, the patch-clamp pipette. Neurons were chosen according to their morphology. B, Current recorded in response to ramps of potential obtained in the various conditions indicated (aa: arachidonic acid: 10 μM, Spadin: 1[…]μM, Fluoxetine: 20 μM). Neurons were recorded in the whole-cell configuration of the patch-clamp technique. In voltage-clamp, ramps of potential from −90 mV to 70 mV were applied every 10 sec. The % variation of the current amplitude was always measured at −50 mV. The currents were recorded in response to such ramps in control conditions and in the presence of a cocktail of potassium blockers suitable to isolate the TREK currents (10 mM tetraethyl ammonium (TEA), 3 mM 4-aminopyridine (4-AP), 50 nM charybdotoxin, 10 μM glibenclamide, 100 nM apamin). […] The blocks were reversible. C, Time course of spadin and fluoxetine effects. Applications are indicated by the horizontal bars.
Cortical neurons were prepared from 14 old mouse embryos whereas hippocampal neurons were prepared from new born mice. Briefly, dissected brain areas were dissociated and neurons were plated on polylysine-treated 35 or 60 mm dishes and maintained in culture in Neurobasal medium supplemented with B27, Glutamax and antibiotics for 2 to 3 weeks before to be used for electrophsysiological or biochemical experiments.
(Patch clamp records ionic current or voltage across a cell membrane.)

Assay [3] concerns mice. As to the kind of experiment: Light/dark exploration. In kind it is in vivo, mouse. To be noted: spadin i.p. 10^-5 M, diazepam i.p. 0.5 mg/kg. The method, then: The apparatus consisted of a cage (25×40×20 cm) divided into two compartments by a black partition containing a small opening that allows mouse to move from one compartment to the other. One compartment, comprising […] of the surface area, was made of white plastic and was brightly illuminated. The adjoining smaller compartment was black and dark. Mice were placed in the white compartment and allowed to move freely between the two chambers for 5 minutes. The number of transitions between the two compartments, time spent in the white chamber, and latency to the first transition were recorded. Mice tend to avoid the white compartment. Thus the measures of exploration in this area (time and entrances) were used as experimental indices of anxiety.

Assay [4] relates to mice. As to the kind of experiment: Staircase test. Format: in vivo, mouse. To be noted: spadin i.p. 10^-5 M, diazepam i.p. 0.5 mg/kg. The procedure:
The apparatus comprised an enclosed staircase consisted of five identical steps (2.5 cm in height×11 cm in width×7.5 cm in length), each made of black plastic. The height of the walls was constant (12.5 cm above the stairs) along the entire length of the staircase. Each mouse was placed individually on the floor of the staircase with its back to the staircase. A step was considered climbed only if the mouse placed all four paws on it. Rearing was recorded when the mouse rose on its hind legs either on the step or against the wall. The number of steps ascended and the number of rearings made in a 3-min period were recorded. Results were expressed as ratio of rearing/step numbers.

The test system of assay [5] is mice. Briefly: Elevated plus-maze. Format: in vivo, mouse. Conditions: spadin i.p. 10^-5 M, diazepam i.p. 0.5 mg/kg. An excerpt: Elevated plus-maze. The apparatus consisted of two open and two enclosed arms of the same size (45×5 cm) with walls 15 cm high. The arms, constructed of black acrylic, radiate from a common central platform (5×5 cm) to form a plus sign. Open arms were arranged opposite to one another, as were closed arms. The maze was elevated to a height of 45 cm above floor level. Each mouse was placed in the central platform facing one of the open arms. The number of entries into the open and closed arms and the time spent on the open and closed arms were recorded during a 5 min test period. Time spent in the unprotected open arms as well as the number of entries in open arms in relation to the total of arm entries are used as experimental indices of anxiety.

The target of assay [6] is T2, NTSR3/Sortilin (Homo sapiens, UniProt Q99523).
T2 sequence (Q99523 78-831): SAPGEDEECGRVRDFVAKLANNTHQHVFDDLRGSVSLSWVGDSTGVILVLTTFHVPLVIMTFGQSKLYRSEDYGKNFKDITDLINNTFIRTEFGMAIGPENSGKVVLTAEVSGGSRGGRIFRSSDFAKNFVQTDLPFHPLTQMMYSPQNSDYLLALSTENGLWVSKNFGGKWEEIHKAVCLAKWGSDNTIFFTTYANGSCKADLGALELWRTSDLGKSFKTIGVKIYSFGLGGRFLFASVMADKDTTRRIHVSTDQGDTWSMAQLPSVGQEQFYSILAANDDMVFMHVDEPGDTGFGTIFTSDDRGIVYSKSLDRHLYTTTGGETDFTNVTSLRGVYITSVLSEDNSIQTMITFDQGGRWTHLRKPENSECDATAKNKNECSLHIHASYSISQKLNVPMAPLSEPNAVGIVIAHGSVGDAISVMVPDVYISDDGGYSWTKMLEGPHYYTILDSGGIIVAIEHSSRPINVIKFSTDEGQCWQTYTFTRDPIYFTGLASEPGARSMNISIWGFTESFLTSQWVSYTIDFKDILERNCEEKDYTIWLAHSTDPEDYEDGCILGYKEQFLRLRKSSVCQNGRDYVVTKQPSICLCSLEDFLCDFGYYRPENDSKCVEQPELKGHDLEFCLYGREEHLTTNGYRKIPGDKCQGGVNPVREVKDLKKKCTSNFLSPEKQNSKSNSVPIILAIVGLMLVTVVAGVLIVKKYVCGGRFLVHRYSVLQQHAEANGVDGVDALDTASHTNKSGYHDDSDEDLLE
To be noted: cited from earlier work; for binding activity / affinity for NTSR3/Sortilin: structure-function studies [15].

The target in assay [7] is TREK-1 channel (expressed by transfection in COS-7 cells). As to the kind of experiment: cell-based or functional assay.
Sequence of TREK-1 channel (expressed by transfection in COS-7 cells) (O95069 whole entry): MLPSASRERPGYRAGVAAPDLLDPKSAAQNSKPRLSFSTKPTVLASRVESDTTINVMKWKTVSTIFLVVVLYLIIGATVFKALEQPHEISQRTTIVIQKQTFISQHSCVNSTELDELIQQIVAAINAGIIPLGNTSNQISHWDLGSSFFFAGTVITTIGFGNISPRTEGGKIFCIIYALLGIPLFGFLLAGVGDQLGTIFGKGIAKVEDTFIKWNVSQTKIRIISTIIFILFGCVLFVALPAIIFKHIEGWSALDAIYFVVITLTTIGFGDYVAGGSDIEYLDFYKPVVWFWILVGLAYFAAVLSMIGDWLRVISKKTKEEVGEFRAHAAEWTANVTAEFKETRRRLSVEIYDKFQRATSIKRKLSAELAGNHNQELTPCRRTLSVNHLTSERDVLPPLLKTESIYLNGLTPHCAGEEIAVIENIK
The target in assay [8] is T1, TREK-1. As to the kind of experiment: Whole-cell patch-clamp on TREK-1 transfected COS-7 cells. Format: cell-based. Set-up: GFP; expressed in transfected cells; host or cells: COS-7 (DEAE-dextran transfection). Conditions: 500 nM, 10 μM aa, at 0 mV, n=4. The procedure:
All electrophysiological experiments were done on COS-7 cells seeded at a density of 20,000 cells/35-mm dish 24 h before transfection. Cells were transfected by the classical DEAE-dextran method with TREK-1-GFP plasmids (0.1 μg/μL). Cells were visualized 48-72 h after transfection using fluorescence.
The whole-cell patch-clamp technique was used to evaluate TREK-1 potassium channel current by using a RK 400 patch-clamp amplifier (Axon Instruments, U.S.A.), as previously described. Currents were lowpass filtered at 3 kHz, digitized at 10 kHz using a 12-bit analog-to-digital converter. […] The bath solution contained (in mM): 150 NaCl, 5 KCl, 3 MgCl2, 1 CaCl2, and 10 HEPES, adjusted to pH 7.4 with NaOH; the patch pipette solution contained (in mM): 155 KCl, 3 MgCl2, 5 EGTA, and 10 HEPES, adjusted to pH 7.2 with KOH. Cells were clamped at −80 mV and voltage changes were either applied by ramp (from −100 to 50 mV, 1 s in duration) or by step (from −100 to 40 mV, 1.5 s in duration). Cells were continuously superfused with a microperfusion system. The pipette capacitance was not subtracted from total membrane capacitance and there was no leak substraction. All experiments were done at room temperature (21° C. to 22° C.) and in the presence of a cocktail of potassium channel inhibitors (K^+ blockers: 10 mM tetraethyl ammonium (TEA), 3 mM 4-aminopyridine (4-AP), 50 nM charybdotoxin, 10 μM glibenclamide, 100 nM apamin).
Pclamp software was used to analyze currents recorded in the whole-cell mode measured at 0 mV. Results are expressed as means±SD. To obtain the IC50 value for dose-dependent inhibition, experimental data were fitted with a standard sigmoidal function.

Assay [9] has as its target NTSR3/Sortilin (endogenous, C13NJ microglial cell line). As to the kind of experiment: cell-based or functional assay.
In assay [10] the target is TREK-1 channel (expressed by transfection in COS-7 cells). As to the kind of experiment: competition with 0.2 nM 125I-spadin on TREK-1 transfected COS-7 cell homogenates, filtration.

Read-outs that look alike come from different tables or passages of the source. No end group written: not given here.

As to `CCCCC/C=C\C/C=C\C/C=C\C/C=C\CCCC(=O)O` [arachidonic acid, Arachidonic acid], the “increase of amplitude of the remaining current” value in assay [1] was 23.3+4.8%. Besides, the “increase of remaining current” value in [2] is on record as “about 50%”.

With `CN1C(=O)CN=C(c2ccccc2)c2cc(Cl)ccc21` [diazepam, reference compound], the “number of light/dark transitions” value in assay [3] is recorded as “significantly induced an increase”. The rearing/step numbers ratio entry in assay [4] is given as “decrease of the rearing/step numbers ratio”. Further, the “time spent in the open arms” value in assay [5] is listed as “significantly reduced the time spent into the aversive open arms”.

In the case of “Gln^1-Arg^28: peptide Gln1-Arg28 of the NTSR3/Sortilin propeptide, from literature”, the “binding activity / affinity for NTSR3/Sortilin” value is listed as “as efficient on the binding activity as the entire propeptide” in [6] and “very low” in assay [6] (listed as Gln^1-Arg^16).

In [7], “NTSR3/Sortilin (expressed by transfection in COS-7 cells) (from UniProt Q99523 78-831) (receptor)” came in with an expression of TREK-1 within the plasma membranes (cell surface biotinylation, Western blot) of 6 fold and an expression of TREK-1 within the plasma membranes (purified plasma membranes, Western blot) of 3 fold.

For “QDRLDAPPPPAAPLPRWSGPIGVSWGLRAAAAGGAFPRGGRWRR [propeptide, 44 residue N-terminal propeptide released from prosortilin by furin]”, the “block of aa stimulated TREK-1 current” value in assay [8] stood at 41±5%. In [6] (read-out: Kd for the mature receptor), the Kd – broadly, the constant that tells how readily two partners part at equilibrium – was about 5 nM.

Regarding “neurotensin (from UniProt P30990 151-163) (peptide)”, in assay [9], the C13NJ cell migration in wound-healing assay with 10 nM NT (% of migration with 10% FCS) was 35.1%.

B1: N-terminal fragment Gln1-Arg16 of the full length propeptide (peptide)
peptide: QDRLDAPPPPAAPLPR
In assay [10], B1 returned an affinity of 1 µM.

B2: 125I-spadin (peptide)
peptide: APLPRWSGPIGVSWGLR
modifications: also: monoiodinated (125I) on Tyr0, an added N-terminal Tyr not in given chain
As to B2, the share of cell-bound 125I-spadin resistant to the acid-NaCl wash (intracellular) on TREK-1 expressing COS-7 cells at 37° C. in assay [7] is 80%.

The values above are taken from patent US20120322060A1, “DIAGNOSIS AND MONITORING TREATMENT OF PSYCHIATRIC DISEASES WITH SPADIN AND RELATED METHODS” (CENTRE NATIONAL DE LE RECHERCHE SCIENTIFIQUE - CNRS -, priority 2011, published 2012).
